Reference: patent US20040229791A1, “Compositions and methods of modulating TGF-beta activity by fatty acids” (priority 2002, published 2004)

How the values were obtained:
[1] = Plasma clearance of 125I-TGF-β2 with and without α2M* and arachidonic acid; assay type: in vivo, mice; details: control experiments, no α2M*
Protocol: TGF ? β1-α2M* and TGF- ? 2- ? 2M* complexes are cleared from plasma by the ? liver (30). To test the possibility that fatty acids may be able to affect the plasma clearance of TGF ? β and α2M* complexes, ^125I-TGF ? β1 or ^125I-TGF- ? 2 were prei presence or absence of 10 μM arachidonic acid at room temperature for 30 min, and then injected into mice via tail vein according to published procedures (19). At several time intervals (10 sec, 1, 2, 3, 5, 10, 15, 20, 30 and 60 min) about 50 μl of blood was collected and counted by a γ-counter. […] The t 1+α2M* or ^125I-TGF- ? 2+α2M* were approximately 4 min. These twith published values of free ^125I-TGF- ? 1,2 and ^125I-TGF- ? 1,2-α2M* complexes, respe (19). In the presence of arachidonic acid, the t1/2s of ^125I-TGF ? β1+α2M* and ^125I-TGF α2M* were decreased to approximately 1-2 min; these are essentially identical to the t1/2s of free ^125I-TGF- ? 1 and ^125I-TGF ? β2 (FIGS. 7A and B). In control experiments, arachidonic acid did no affect the plasma clearance of free ^125I-TGF ? β1 and ^125I-TGF- ? 2.
Plasma clearance of ^125I-TGF ? β in the presence and absence of ? 2M*-^125I-TGF- ? 1 nM) or ^125I-TGF- ? 2 (1 nM) was pre-incubated with ? […] The radioactivity in the blood sample obtained at 10 s was taken as 100%.

[2] = system: p3TP-Lux in transfected Mv1Lu cells; assay: Luciferase assay, p3TP-Lux TGF-β-responsive promoter construct; assay type: cell-based, mink; details: for reversal of α2M* inhibition of TGF-β2-induced luciferase activity: 200 μg/ml α2M*
Protocol: One of the prominent biological activities of TGF- ? is transcriptional activation of plasminogen activator inhibitor-1 (PAI-1) and fibronectin (1-4). The effect of fatty acids on the inhibition by. α2M* of a TGF- ? -responsive promoter construct p3TP-Lux was determined in transfected Mv1Lu cells. The p3TP-Lux contains the PAI-1 promoter and 3 repeats of a phorbol-12-myristate-13-acetate (TPA)-responsive element (29).
Luciferase Assay—Mv1Lu cells which had been plated on 12-well clustered dishes at a cell density of approximately 0.8-1.0×10^5 cells/plate were transfected with 4-6 μg of p3TP-Lux using the calcium phosphate method (24). After 12 hr, the transfected cells were washed with phosphate buffered saline and allowed to grow in a medium containing 10% fetal calf serum for 12 hr. The medium was changed to DMEM with low serum concentration (0.2% fetal calf serum) and the cells were incubated for 4-6 hr. The cells were then treated for 20 hr with TGF-.β2 (0, 50 or 100 pM), α2M* (0 or 200 μg/ml) and arachidonic acid (0, 12.5 or 25 μM) in the same low-serum medium. The cells were harvested and assayed for luciferase activity using the Promega kit according to the manufacturer's protocol. The luciferase activity was assayed in triplicate cell cultures and measured as arbitrary units (A.U.).

SMILES: CCCCC/C=C\C/C=C\C/C=C\C/C=C\CCCC(=O)O [arachidonic acid]
- effect on plasma clearance of free 125I-TGF-β2 [1]: did no affect
- reversal of α2M* inhibition of TGF-β2-induced luciferase activity ([2]; 12.5 μM arachidonic acid): completely reversed
- reversal of α2M* inhibition of TGF-β2-induced luciferase activity ([2]; 25 μM arachidonic acid): completely reversed
- effect on luciferase activity in cells treated with and without TGF-β2 in the absence of α2M* ([2]; 12.5 and 25 μM, absence of α2M*): did not influence the luciferase activity
